Consider four compounds from patent US20050282743A1, “Molecular interactions in cells” (Arbor Vita Corporation, priority 2001, published 2005).

Peptide text beside a SMILES is read from it. * marks the point of attachment. Biotin = O=C1N[C@H]2[C@H](CS[C@H]2CCCCC(=O)*)N1

Assay in all cases: G' assay (10 uM PL peptide), results of TABLE 7 and TABLE 12
Holding throughout (format): binding

The target in assay [1] is T1, PDZ protein (GST-PDZ fusion) (Homo sapiens, UniProt O15085).
T1 construct: made in house; host or cells: E. coli (DH5alpha, BL21 or JM109)
T1 sequence (O15085 whole entry, the tested form may be a part): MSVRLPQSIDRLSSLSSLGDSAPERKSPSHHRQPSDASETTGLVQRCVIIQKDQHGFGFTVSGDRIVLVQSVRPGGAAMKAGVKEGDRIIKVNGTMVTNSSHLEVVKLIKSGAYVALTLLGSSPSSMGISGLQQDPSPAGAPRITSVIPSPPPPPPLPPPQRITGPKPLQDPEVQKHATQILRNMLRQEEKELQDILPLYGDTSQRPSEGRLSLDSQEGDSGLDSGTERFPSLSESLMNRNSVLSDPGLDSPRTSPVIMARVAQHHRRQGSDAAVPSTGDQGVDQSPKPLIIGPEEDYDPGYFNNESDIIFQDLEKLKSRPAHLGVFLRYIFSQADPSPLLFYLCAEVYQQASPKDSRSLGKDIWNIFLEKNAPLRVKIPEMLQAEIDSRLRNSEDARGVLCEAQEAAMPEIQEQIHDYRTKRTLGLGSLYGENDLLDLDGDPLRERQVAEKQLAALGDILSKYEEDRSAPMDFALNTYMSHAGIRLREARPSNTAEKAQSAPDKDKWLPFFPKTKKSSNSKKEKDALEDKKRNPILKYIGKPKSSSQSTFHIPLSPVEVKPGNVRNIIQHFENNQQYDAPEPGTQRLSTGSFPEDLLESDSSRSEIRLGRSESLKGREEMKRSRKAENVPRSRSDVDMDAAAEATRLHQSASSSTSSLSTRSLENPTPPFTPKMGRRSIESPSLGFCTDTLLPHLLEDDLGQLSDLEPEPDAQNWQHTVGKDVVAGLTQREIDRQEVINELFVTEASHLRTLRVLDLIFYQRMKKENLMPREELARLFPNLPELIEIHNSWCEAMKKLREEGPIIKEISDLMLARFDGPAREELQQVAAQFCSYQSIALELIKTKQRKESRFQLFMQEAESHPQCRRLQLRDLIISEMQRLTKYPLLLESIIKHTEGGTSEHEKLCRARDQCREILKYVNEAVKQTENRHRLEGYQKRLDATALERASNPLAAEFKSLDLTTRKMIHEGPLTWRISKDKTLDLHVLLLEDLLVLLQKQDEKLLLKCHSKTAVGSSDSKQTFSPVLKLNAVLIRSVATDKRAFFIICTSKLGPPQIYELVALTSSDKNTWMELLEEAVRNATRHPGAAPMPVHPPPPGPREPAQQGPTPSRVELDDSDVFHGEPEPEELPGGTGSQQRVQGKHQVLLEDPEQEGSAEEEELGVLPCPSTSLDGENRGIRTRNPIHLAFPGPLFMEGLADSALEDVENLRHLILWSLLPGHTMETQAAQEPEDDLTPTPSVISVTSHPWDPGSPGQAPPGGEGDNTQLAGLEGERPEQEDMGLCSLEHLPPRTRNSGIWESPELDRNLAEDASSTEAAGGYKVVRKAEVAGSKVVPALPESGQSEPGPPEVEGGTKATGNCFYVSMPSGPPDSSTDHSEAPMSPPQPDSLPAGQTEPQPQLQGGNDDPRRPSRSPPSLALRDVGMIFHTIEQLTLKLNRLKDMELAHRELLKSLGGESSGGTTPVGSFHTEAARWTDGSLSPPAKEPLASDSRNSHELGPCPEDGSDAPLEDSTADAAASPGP
Particulars: PDZ KIAA0380, PDZ Domain 1. In a few lines: (§1)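 Same steps as the G-zero format, apart from a peptide concentration of 10 uM in place of 20 uM in step 2. Amino-terminally biotinylated PL peptides bind GST-PDZ fusions, and retained peptide is quantified by 450 nm absorbance.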

The target in assay [2] is T2, PDZ protein (GST-PDZ fusion) (Homo sapiens, UniProt P29475).
T2 construct: made in house; host or cells: E. coli (DH5alpha, BL21 or JM109)
T2 sequence (P29475 whole entry, the tested form may be a part): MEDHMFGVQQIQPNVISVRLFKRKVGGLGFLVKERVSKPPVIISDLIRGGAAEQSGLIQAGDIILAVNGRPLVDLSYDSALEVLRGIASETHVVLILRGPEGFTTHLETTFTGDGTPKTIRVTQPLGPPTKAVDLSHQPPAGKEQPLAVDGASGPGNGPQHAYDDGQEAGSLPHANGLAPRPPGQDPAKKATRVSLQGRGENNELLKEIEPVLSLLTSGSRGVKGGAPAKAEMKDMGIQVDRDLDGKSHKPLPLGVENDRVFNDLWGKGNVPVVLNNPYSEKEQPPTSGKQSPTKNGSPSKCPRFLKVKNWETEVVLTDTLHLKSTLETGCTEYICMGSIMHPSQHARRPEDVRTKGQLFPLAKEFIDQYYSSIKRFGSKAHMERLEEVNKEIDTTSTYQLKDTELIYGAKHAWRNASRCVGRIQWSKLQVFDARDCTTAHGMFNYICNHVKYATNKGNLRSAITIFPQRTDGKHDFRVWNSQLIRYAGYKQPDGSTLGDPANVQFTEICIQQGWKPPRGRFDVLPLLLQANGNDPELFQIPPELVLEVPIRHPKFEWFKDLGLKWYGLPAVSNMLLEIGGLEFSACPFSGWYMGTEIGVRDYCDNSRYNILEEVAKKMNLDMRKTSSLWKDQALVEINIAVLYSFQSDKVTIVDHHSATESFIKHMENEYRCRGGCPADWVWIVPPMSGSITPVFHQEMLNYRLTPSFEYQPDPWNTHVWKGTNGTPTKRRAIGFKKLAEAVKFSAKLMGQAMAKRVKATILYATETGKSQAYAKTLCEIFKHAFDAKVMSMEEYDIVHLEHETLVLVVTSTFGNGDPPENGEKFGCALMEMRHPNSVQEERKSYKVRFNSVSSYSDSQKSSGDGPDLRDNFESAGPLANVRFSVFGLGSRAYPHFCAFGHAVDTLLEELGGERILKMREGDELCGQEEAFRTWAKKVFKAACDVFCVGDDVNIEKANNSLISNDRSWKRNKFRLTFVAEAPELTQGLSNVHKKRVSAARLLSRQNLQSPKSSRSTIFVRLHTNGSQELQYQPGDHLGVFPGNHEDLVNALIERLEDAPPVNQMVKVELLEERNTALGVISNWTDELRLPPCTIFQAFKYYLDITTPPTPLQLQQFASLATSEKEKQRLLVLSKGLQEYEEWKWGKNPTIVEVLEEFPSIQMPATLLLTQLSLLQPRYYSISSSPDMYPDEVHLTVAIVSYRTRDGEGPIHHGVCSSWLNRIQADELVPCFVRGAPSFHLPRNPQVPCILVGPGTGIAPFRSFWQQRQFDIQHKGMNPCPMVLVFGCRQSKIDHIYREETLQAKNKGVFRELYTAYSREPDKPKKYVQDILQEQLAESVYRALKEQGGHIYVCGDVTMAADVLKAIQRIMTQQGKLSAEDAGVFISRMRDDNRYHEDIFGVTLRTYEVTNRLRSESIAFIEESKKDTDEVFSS
As to conditions: PDZ NOS1, PDZ Domain 1. In short, it runs like this: as §1

For assay [3], the target named is T3, PDZ protein (GST-PDZ fusion) (Homo sapiens, UniProt Q9HD26).
T3 construct: made in house; host or cells: E. coli (DH5alpha, BL21 or JM109)
Particulars: PDZ PIST, PDZ Domain 1. In a few lines:
as §1

Assay [4] addresses T4, PDZ protein (GST-PDZ fusion) (Homo sapiens, UniProt O14745).
T4 construct: made in house; host or cells: E. coli (DH5alpha, BL21 or JM109)
T4 sequence (O14745 1-358): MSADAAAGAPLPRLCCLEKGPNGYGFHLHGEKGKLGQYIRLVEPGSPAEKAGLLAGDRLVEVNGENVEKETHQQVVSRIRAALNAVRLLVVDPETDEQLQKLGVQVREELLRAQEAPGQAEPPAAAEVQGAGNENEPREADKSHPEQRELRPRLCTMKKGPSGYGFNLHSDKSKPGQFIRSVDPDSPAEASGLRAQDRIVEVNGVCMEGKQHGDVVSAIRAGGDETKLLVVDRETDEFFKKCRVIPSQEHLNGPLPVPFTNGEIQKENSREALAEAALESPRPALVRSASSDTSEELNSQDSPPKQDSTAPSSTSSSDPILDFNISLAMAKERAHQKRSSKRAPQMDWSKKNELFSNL
In short, it runs like this:
as §1

Assay [5] addresses T5, PDZ protein (GST-PDZ fusion) (Homo sapiens, UniProt Q9BYB0).
T5 construct: made in house; host or cells: E. coli (DH5alpha, BL21 or JM109)
Particulars: PDZ SHANK3, PDZ Domain 1. In a few lines: as §1

T5 sequence (Q9BYB0 whole entry, the tested form may be a part): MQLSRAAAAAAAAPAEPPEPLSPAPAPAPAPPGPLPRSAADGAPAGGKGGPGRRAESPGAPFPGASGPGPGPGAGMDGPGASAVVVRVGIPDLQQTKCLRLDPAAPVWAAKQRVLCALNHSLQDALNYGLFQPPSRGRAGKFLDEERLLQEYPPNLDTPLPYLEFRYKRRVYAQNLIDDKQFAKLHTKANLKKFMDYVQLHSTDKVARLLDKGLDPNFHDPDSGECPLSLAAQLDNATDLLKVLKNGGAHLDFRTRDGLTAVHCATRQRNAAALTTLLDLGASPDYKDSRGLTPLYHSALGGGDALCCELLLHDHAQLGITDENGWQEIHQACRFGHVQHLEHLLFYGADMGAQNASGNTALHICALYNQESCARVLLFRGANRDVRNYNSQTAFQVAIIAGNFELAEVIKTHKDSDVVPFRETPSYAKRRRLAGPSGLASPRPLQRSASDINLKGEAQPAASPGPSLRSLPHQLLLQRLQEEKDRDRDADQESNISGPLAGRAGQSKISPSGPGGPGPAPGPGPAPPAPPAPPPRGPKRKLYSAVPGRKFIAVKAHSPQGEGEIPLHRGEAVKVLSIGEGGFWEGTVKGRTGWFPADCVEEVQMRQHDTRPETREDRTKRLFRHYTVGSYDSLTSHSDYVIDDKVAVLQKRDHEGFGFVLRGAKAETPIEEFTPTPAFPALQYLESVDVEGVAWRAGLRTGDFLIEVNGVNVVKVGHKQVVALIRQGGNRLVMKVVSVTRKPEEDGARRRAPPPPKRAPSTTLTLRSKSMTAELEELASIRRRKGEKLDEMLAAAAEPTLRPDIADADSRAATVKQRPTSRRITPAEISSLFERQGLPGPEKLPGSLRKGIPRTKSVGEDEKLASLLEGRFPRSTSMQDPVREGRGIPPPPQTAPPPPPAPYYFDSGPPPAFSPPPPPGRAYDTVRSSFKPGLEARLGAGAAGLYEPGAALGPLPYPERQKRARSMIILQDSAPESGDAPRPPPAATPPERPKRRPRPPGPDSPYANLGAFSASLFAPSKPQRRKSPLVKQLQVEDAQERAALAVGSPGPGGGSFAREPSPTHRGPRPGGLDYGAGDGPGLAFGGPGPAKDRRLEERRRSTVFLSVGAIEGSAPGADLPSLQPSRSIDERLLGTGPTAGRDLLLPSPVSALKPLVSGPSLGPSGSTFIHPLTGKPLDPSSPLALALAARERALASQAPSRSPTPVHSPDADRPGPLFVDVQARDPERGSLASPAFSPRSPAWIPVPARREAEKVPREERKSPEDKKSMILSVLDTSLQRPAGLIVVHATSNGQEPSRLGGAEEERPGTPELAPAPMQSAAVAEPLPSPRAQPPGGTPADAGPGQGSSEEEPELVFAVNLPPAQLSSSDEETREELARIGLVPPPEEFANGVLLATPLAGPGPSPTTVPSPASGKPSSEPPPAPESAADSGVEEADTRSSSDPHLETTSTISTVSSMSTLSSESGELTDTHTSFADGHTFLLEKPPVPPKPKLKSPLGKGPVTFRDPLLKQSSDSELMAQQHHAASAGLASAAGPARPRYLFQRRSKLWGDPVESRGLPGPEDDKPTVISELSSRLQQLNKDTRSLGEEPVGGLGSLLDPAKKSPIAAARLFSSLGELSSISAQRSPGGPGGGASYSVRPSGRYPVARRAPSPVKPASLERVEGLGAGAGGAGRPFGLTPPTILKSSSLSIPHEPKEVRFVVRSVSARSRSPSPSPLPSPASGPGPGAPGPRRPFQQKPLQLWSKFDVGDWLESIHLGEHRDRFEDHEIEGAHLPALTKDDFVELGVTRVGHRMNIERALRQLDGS

For `CSCC[C@H](NC(=O)[C@H](C)NC(=O)[C@H](CCCNC(=N)N)NC(=O)CNC(=O)[C@@H](NC(=O)[C@H](Cc1c[nH]c2ccccc12)NC(=O)[C@H](CCCNC(=N)N)NC(=O)CNC(=O)CCCC[C@@H]1SC[C@@H]2NC(=O)N[C@@H]21)[C@@H](C)O)C(=O)N[C@@H](CO)C(=O)N[C@@H](C)C(=O)N[C@@H](Cc1c[nH]c2ccccc12)C(=O)N[C@@H](CCCCN)C(=O)N1CCC[C@H]1C(=O)N[C@H](C(=O)N[C@@H](CCCNC(=N)N)C(=O)N[C@@H](CCCNC(=N)N)C(=O)N[C@@H](CCC(=O)O)C(=O)N[C@H](C(=O)N[C@@H](CCC(=O)O)C(=O)N[C@H](C(=O)O)C(C)C)[C@@H](C)O)[C@@H](C)O` [HPV E6 #35 (modified)] (Biotin-GRWTGRAMSAWKPTRRETEV-OH; C-terminus assumed), the values for the Classification in assay [1], in assay [2] and in assay [3] were 3 (A450 nm 2-3), 1 (A450 nm 0-1) and 1 (A450 nm 0-1), respectively.

For the compound `CC[C@H](C)[C@H](NC(=O)[C@H](CC(=O)O)NC(=O)[C@H](CCC(=O)O)NC(=O)[C@H](CCCNC(=N)N)NC(=O)[C@@H](NC(=O)CCCC[C@@H]1SC[C@@H]2NC(=O)N[C@@H]21)[C@@H](C)O)C(=O)N[C@@H](Cc1ccc(O)cc1)C(=O)N[C@H](C(=O)N[C@@H](CC(N)=O)C(=O)N[C@@H](Cc1ccc(O)cc1)C(=O)N1CCC[C@H]1C(=O)N[C@H](C(=O)N[C@@H](Cc1ccccc1)C(=O)N[C@@H](CO)C(=O)N[C@@H](CCCNC(=N)N)C(=O)N[C@@H](CCCNC(=N)N)C(=O)N1CCC[C@H]1C(=O)N[C@@H](CCCCN)C(=O)N[C@H](C(=O)N[C@@H](CCCNC(=N)N)C(=O)N[C@H](C(=O)O)C(C)C)[C@@H](C)O)[C@@H](C)O)C(C)C` [DNAM-1] (Biotin-TREDIYVNYPTFSRRPKTRV-OH; C-terminus assumed), the Classification in assay [4] (PDZ EBP50, PDZ Domain 1) is recorded as 1 (A450 nm 0-1); in assay [4] (PDZ EBP50, PDZ Domain 2), 1 (A450 nm 0-1); in assay [5] it was 2 (A450 nm 1-2); in assay [2] it was 1 (A450 nm 0-1); in assay [3] it was 4 (A450 nm 3-4).

In the case of `CC(C)C[C@H](NC(=O)[C@H](C)NC(=O)[C@@H](NC(=O)[C@@H](NC(=O)[C@H](Cc1c[nH]cn1)NC(=O)[C@H](CC(C)C)NC(=O)CNC(=O)[C@H](CCC(N)=O)NC(=O)CNC(=O)CNC(=O)[C@H](C)NC(=O)[C@H](C)NC(=O)[C@H](CCCNC(=N)N)NC(=O)[C@H](C)NC(=O)[C@H](CO)NC(=O)[C@H](CC(=O)O)NC(=O)[C@H](CC(=O)O)NC(=O)[C@H](Cc1c[nH]c2ccccc12)NC(=O)[C@H](C)NC(=O)CCCC[C@@H]1SC[C@@H]2NC(=O)N[C@@H]21)C(C)C)[C@@H](C)O)C(=O)O` [LPAP] (Biotin-AWDDSARAAGGQGLHVTAL-OH; C-terminus assumed), the Classification was 5 (A450 nm of 4 more than 2× repeated) in assay [4] (PDZ EBP50, PDZ Domain 1); 4 (A450 nm 3-4) in assay [4] (PDZ EBP50, PDZ Domain 2); 3 (A450 nm 2-3) in assay [5]; 1 (A450 nm 0-1) in assay [2]; 1 (A450 nm 0-1) in assay [3].

For `CC[C@H](C)[C@H](NC(=O)[C@H](CCCCN)NC(=O)[C@@H](NC(=O)[C@H](CO)NC(=O)[C@@H]1CCCN1C(=O)[C@H](Cc1ccccc1)NC(=O)[C@@H](NC(=O)[C@@H](NC(=O)[C@H](CCCNC(=N)N)NC(=O)[C@H](CCC(=O)O)NC(=O)[C@H](CC(C)C)NC(=O)[C@H](CC(C)C)NC(=O)[C@H](CC(C)C)NC(=O)[C@@H](NC(=O)CNC(=O)[C@@H](NC(=O)CCCC[C@@H]1SC[C@@H]2NC(=O)N[C@@H]21)C(C)C)[C@@H](C)O)C(C)C)[C@@H](C)CC)C(C)C)C(=O)N[C@@H](C)C(=O)N[C@H](C(=O)N[C@@H](CC(C)C)C(=O)N[C@H](C(=O)O)C(C)C)[C@@H](C)O` [Adenovirus E4 Type9], the Classification is on record as 5 (A450 nm of 4 more than 2× repeated) in assay [2] (PL peptide 10 uM) and 1 (A450 nm 0-1) in assay [3] (PL peptide 10 uM).
